# In PubChem BioAssay (NCI):
# Several values for one entry are separate records, joined by “and”; a condition that tells them apart may be missing. Equal entries are not always repeated.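 Protocol summary: plate cells (96-well), add compound at 5 concentrations, incubate 48 h, interpolate endpoints linearly. GI50 is the concentration that inhibits growth by half. TGI denotes the concentration required for complete inhibition of growth.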
# Experiments:
# Assay in all cases: DTP human tumour cell line panel, 48 h
# TK-10 renal = system: TK-10 renal
# CAKI-1 renal = system: CAKI-1 renal
# SW-620 colon = system: SW-620 colon
# BT-549 breast = system: BT-549 breast
# HCC-2998 colon = system: HCC-2998 colon
# NCI-H522 lung = system: NCI-H522 lung
# SF-295 CNS = system: SF-295 CNS
# HOP-92 NSCLC = system: HOP-92 NSCLC
# COLO 205 colon = system: COLO 205 colon
# A549 NSCLC = system: A549 NSCLC
Compound,GI50 (TK-10 renal),TGI (TK-10 renal),GI50 (CAKI-1 renal),TGI (CAKI-1 renal),GI50 (SW-620 colon),TGI (SW-620 colon),GI50 (BT-549 breast),TGI (BT-549 breast),GI50 (HCC-2998 colon),TGI (HCC-2998 colon),GI50 (NCI-H522 lung),TGI (NCI-H522 lung),GI50 (SF-295 CNS),TGI (SF-295 CNS),GI50 (HOP-92 NSCLC),TGI (HOP-92 NSCLC),GI50 (COLO 205 colon),TGI (COLO 205 colon),GI50 (A549 NSCLC),TGI (A549 NSCLC)
O=c1cc(-c2ccccc2)[nH]n1-c1nc2ccccc2[nH]1,17.7 µM,> 100 µM,3.42 µM,> 100 µM,4.48 µM,> 100 µM,7.03 µM,> 100 µM,23.1 µM,> 100 µM,3.65 µM,17.6 µM,2.92 µM,> 100 µM,4.25 µM,47.7 µM,27.8 µM,> 100 µM,4.46 µM,> 100 µM
NS(=O)(=O)c1cccc(N=Cc2c(O)[nH]c3ccccc23)c1,> 17.7 µM,> 25 µM,13.9 µM,> 25 µM,> 25 µM,> 25 µM,> 25 µM,> 25 µM,> 25 µM,> 25 µM,24.4 µM,> 25 µM,> 25 µM,> 25 µM,> 25 µM,> 25 µM,> 25 µM,> 25 µM,> 25 µM,> 25 µM
c1ccc(-n2nnnc2-c2cccc3ccccc23)cc1,1.45 µM,> 100 µM,0.465 µM,> 100 µM,0.453 µM,> 100 µM,0.755 µM,> 61.2 µM,1.12 µM,10.3 µM,0.272 µM,2.71 µM,0.395 µM,19.9 µM,1.19 µM,24.3 µM,0.49 µM,3.83 µM,1.04 µM,> 100 µM
N#CC1=C(N)NC(=O)NC12Nc1ccccc1S2 (stereo not given),26.1 µM,66 µM,30.1 µM,> 72.6 µM,28.8 µM,> 72.6 µM,24.2 µM,93.6 µM,35.5 µM,> 100 µM,28.2 µM,> 71.4 µM,26.4 µM,> 65.7 µM,91.3 µM,> 100 µM,15.8 µM,> 73.1 µM,4.27 µM,> 40.4 µM
Cc1cc(Cc2cc(C)cc(C(C)(C)C)c2O)c(O)c(C(C)(C)C)c1,8.22 µM,21.3 µM,2.36 µM,8.03 µM,4.47 µM,16 µM,11 µM,23.9 µM,4.3 µM,15.9 µM,4.16 µM,14.6 µM,2.54 µM,6.23 µM,4.37 µM,16 µM,6.73 µM,19.6 µM,3.86 µM,13.2 µM
Cc1c2c[n+](C(C)C)ccc2c(C)c2c1[nH]c1ccccc12,21.1 µM,> 100 µM,> 100 µM,> 100 µM,3.63 µM,49.7 µM,1.72 µM,11.2 µM,2.99 µM,13.7 µM,2.26 µM,11.4 µM,1.32 µM,20 µM,1.86 µM,6.95 µM,1.77 µM,6.46 µM,2.55 µM,> 100 µM
Cc1cc(Nc2ncnc3ccc(NC4=NC(C)(C)CO4)cc23)ccc1Oc1ccn2ncnc2c1,3.84 µM and 2.76 µM,25.1 µM and > 10 µM,6.3 µM and > 10 µM,> 61.1 µM,20.5 µM and > 10 µM,41.2 µM and > 10 µM,14.1 µM and > 10 µM,39.5 µM and > 10 µM,16.5 µM and > 10 µM,30.9 µM and > 10 µM,2.44 µM and > 10 µM,21.1 µM and > 10 µM,14.9 µM and > 10 µM,38.3 µM and > 10 µM,3.69 µM and 4.24 µM,26.9 µM and > 10 µM,14.3 µM and > 10 µM,32.3 µM and > 10 µM,14.9 µM and > 10 µM,82.9 µM and > 10 µM
COc1ccc(Cl)cc1NC(=O)C(Br)C(Br)C(=O)O (stereo not given),6.59 µM,28 µM,16.7 µM,49.1 µM,5 µM,> 51.5 µM,3.23 µM,13 µM,8.25 µM,22.2 µM,1.91 µM,5.45 µM,38.9 µM,> 100 µM,12.8 µM,33.1 µM,18.1 µM,34 µM,> 74.3 µM,> 100 µM
O=C(O)c1ccc(N/C=C2\C(=O)c3ccccc3OC2O)cc1O (stereo not given),36 µg/mL,106 µg/mL,10.8 µg/mL,32.5 µg/mL,20.3 µg/mL,48.3 µg/mL,19 µg/mL,71.2 µg/mL,24.1 µg/mL,45.4 µg/mL,28 µg/mL,62.9 µg/mL,5.96 µg/mL,28.7 µg/mL,4.11 µg/mL,36.5 µg/mL,30.5 µg/mL,76.4 µg/mL,55.1 µg/mL,> 150 µg/mL
